How the values were obtained:
rat mGlu2 receptor = target: T1, rat mGlu2 receptor (Rattus norvegicus, UniProt P31421); test: [3H]-LY354740 binding on mGlu2 transfected CHO cell membranes
T1 construct: expressed in transfected cells; host or cells: CHO cells, stably transfected with pcD1mGR2 (pcDNA I-amp), G-418 selected; membranes used
T1 sequence (P31421 19-872): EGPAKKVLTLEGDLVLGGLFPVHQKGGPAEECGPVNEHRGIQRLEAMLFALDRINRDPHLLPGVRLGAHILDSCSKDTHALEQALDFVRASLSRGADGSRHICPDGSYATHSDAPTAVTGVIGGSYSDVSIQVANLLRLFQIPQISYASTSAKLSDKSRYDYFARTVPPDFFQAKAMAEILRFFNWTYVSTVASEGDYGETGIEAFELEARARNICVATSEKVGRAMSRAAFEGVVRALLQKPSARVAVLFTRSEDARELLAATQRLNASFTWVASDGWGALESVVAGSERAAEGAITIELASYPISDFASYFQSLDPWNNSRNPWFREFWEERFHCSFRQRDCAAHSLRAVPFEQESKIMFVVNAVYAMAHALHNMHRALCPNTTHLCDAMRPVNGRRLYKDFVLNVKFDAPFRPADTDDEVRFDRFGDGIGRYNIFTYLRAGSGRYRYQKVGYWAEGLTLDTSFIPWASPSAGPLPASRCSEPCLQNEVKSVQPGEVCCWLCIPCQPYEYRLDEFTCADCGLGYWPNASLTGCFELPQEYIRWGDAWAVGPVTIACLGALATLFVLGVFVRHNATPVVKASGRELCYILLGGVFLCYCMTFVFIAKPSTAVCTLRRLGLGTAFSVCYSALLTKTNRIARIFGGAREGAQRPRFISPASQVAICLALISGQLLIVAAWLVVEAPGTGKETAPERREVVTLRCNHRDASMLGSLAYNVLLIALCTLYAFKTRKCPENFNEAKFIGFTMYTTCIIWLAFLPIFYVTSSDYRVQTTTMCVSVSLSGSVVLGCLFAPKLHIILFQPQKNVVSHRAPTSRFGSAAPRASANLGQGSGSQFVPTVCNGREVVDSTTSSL

Ki (rat mGlu2 receptor) [µM] | melting point | SMILES
0.009 | 234 °C (dec.) | O=C1CC(c2cccc(-n3ccnc3)c2)=Nc2cc(CO)c(C#Cc3ccc(F)cc3)cc2N1 [Example 37, 8-(4-Fluoro-phenylethynyl)-7-hydroxymethyl-4-(3-imidazol-1-yl-phenyl)-1,3-dihydro-benzo[b][1,4]diazepin-2-one]
0.032 | 224 to 227 °C | O=C1CC(c2cccc(-n3ccnc3)c2)=Nc2cc(OCCO)c(C#Cc3ccccc3)cc2N1 [Example 42, 7-(2-Hydroxy-ethoxy)-4-(3-imidazol-1-yl-phenyl)-8-phenylethynyl-1,3-dihydro-benzo[b][1,4]diazepin-2-one]
0.1 | 225 to 227 °C | O=C1CC(c2cccc(-n3ccnc3)c2)=Nc2cc(N3CCC(OCCO)CC3)c(-c3ccc(F)cc3)cc2N1 [Example 45, 8-(4-Fluoro-phenyl)-7-[4-(2-hydroxy-ethoxy)-piperidin-1-yl]-4-(3-imidazol-1-yl-phenyl)-1,3-dihydro-benzo[b][1,4]diazepin-2-one]
0.007 | 250 °C | O=C1CC(c2cccc(-n3ccnc3)c2)=Nc2cc(O)c(-c3ccc(F)cc3)cc2N1 [Example 61, 8-(4-Fluoro-phenyl)-7-hydroxy-4-(3-imidazol-1-yl-phenyl)-1,3-dihydro-benzo[b][1,4]diazepin-2-one]
0.138 | 220 to 222 °C | COc1cc2c(cc1-c1ccccc1F)NC(=O)CC(c1cccc(-n3ccnc3C)c1)=N2 [Example 68, 8-(2-Fluoro-phenyl)-7-methoxy-4-[3-(2-methyl-imidazol-1-yl)-phenyl]-1,3-dihydro-benzo[b][1,4]diazepin-2-one]
0.168 | > 250 °C | COc1cc2c(cc1-c1ccccc1F)NC(=O)CC(c1ccc(C#N)s1)=N2 [Example 69]
0.033 | 240 to 242 °C | COc1cc2c(cc1-c1ccccc1F)NC(=O)CC(c1ccnc(C#N)c1)=N2 [Example 71, 4-[7-(2-Fluoro-phenyl)-8-methoxy-4-oxo-4,5-dihydro-3H-benzo[b][1,4]diazepin-2-yl)-pyridine-2-carbonitrile]
0.028 | > 250 °C | O=C1CC(c2cccc(-n3ccnn3)c2)=Nc2cc(O)c(-c3ccccc3F)cc2N1 [Example 75, 8-(2-Fluoro-phenyl)-7-hydroxy-4-(3-[1,2,3]triazol-1-yl-phenyl)-1,3-dihydro-benzo[b][1,4]diazepin-2-one]
0.108 | > 250 °C | Cc1nccn1-c1cccc(C2=Nc3cc(O)c(-c4ccccc4F)cc3NC(=O)C2)c1 [Example 79, 8-(2-Fluoro-phenyl)-7-hydroxy-4-[3-(2-methyl-imidazol-1-yl)-phenyl]-1,3-dihydro-benzo[b][1,4]diazepin-2-one]
0.021 | > 250 °C | CSc1nccn1-c1cccc(C2=Nc3cc(O)c(-c4ccccc4F)cc3NC(=O)C2)c1 [Example 81, 8-(2-Fluoro-phenyl)-7-hydroxy-4-[3-(2-methylsulfanyl-imidazol-1-yl)-phenyl]-1,3-dihydro-benzo[b][1,4]diazepin-2-one]
0.012 | 241 °C | COc1cc2c(cc1-c1cc(F)ccc1F)NC(=O)CC(c1cccc(-n3ccnn3)c1)=N2 [Example 83, 8-(2,5-Difluoro-phenyl)-7-methoxy-4-(3-[1,2,3]triazol-1-yl-phenyl)-1,3-dihydro-benzo[b][1,4]diazepin-2-one]
0.015 | 237 °C | Cc1cc(-c2cccc(C3=Nc4cc(O)c(-c5ccccc5F)cc4NC(=O)C3)c2)on1 [Example 89, 8-(2-Fluoro-phenyl)-7-hydroxy-4-[3-(3-methyl-isoxazol-5-yl)-phenyl]-1,3-dihydro-benzo[b][1,4]diazepin-2-one]
0.006 | > 250 °C | N#Cc1cccc(C2=Nc3cc(O)c(-c4cc(F)ccc4F)cc3NC(=O)C2)c1 [Example 90, 3-[7-(2,5-Difluoro-phenyl)-8-hydroxy-4-oxo-4,5-dihydro-3H-benzo[b][1,4]diazepin-2-yl]-benzonitrile]
0.013 | 247 °C | O=C1CC(c2cccc(-n3ccnc3)c2)=Nc2cc(O)c(C#Cc3ccc(F)cc3)cc2N1 [Example 91, 8-(4-Fluoro-phenylethynyl)-7-hydroxy-4-(3-imidazol-1-yl-phenyl)-1,3-dihydro-benzo[b][1,4]diazepin-2-one]
